The results in this text go back to patent US20080114047A1 (priority 2003, published 2008).

Data set [1] has as its system Trypanosoma brucei rhodesiense. The data set is described as follows: Anti-protozoan data: T.b.r. IC50. Format: cell-based. Particulars: read-out: T.b.r. IC50.
For another data set, the system named is Plasmodium falciparum. The data set is described as follows: Anti-protozoan data: P. falcip. IC50. Particulars: read-out: P. falcip. IC50. Format: cell-based.
The subject of a further data set is Trypanosoma cruzi. Nature of the data set: Anti-protozoan data: T. cruzi IC50. Type of data set: cell-based. Conditions: read-out: T. cruzi IC50.
The test system of data set [2] is L. donovani axenic amastigotes. The data set is described as follows: In vitro anti-leishmania activity (IC50 vs. L. donovani axenic amastigotes). Type of data set: cell-based. Particulars: Leishmania donovani.
The mark [3] stands for this setting: Tables VI(a), VI(c), read-out: Leishmania donovani IC50.
The mark [4] stands for this setting: axenic amastigotes, Tables I-V, read-out: IC50 vs. L. donovani.

Read-outs that look alike come from different tables or passages of the source.

The term melting point denotes the temperature of the solid-liquid transition. In general, IC50 refers to the midpoint of a concentration-inhibition curve. On to `Cl.Cl.c1cc(OCCCCCOc2ccc(C3=NCCN3)cc2)cc(-c2cc3cc(C4=NCCN4)ccc3o2)c1` [Compound 40, 2-(2-(3-(5-(4-(4,5-Dihydro-1H-imidazol-2-yl)phenoxy)pentyloxy)phenyl)benzofuran-5-yl)-4,5-dihydro-1H-imidazole dihydrochloride], for which the melting point is 180 to 182 °C. Besides, in data set [1] (Tables VI(a), VI(c)), the IC50 was found to be 0.597 µM. Also, the IC50 in the data set on Plasmodium falciparum (Tables VI(a), VI(c)) worked out at 0.099 µM. Also, the midpoint of inhibition in “in vitro”, the IC50, lay at 2.62 µM. Further, the IC50 in the data set on Trypanosoma cruzi (Tables VI(a), VI(c)) came to 7.88 µM. For the same compound, the IC50 in data set [2] (setting [3]) is 16.6 ± 6.2 µM.

As to `CC(C)NC(=N)c1ccc(OCCCCCCOc2cccc(-c3cc4cc(C(=N)NC(C)C)ccc4o3)c2)cc1.Cl.Cl` [Compound 42, 2-(3-(6-(4-(N-Isopropylcarbamimidoyl)phenoxy)hexyloxy)phenyl)-N-isopropylbenzofuran-5-carboxamidine dihydrochloride], the melting point lay in the range of 224 to 227 °C. Moreover, in data set [1] (Tables VI(a), VI(c)), the IC50 is 1.16 µM. Also, the IC50 in the data set with Plasmodium falciparum (Tables VI(a), VI(c)) was found to be 0.183 µM. Further, the IC50 in the data set “in vitro” worked out at 7.36 µM. Moreover, the IC50 in data set [2] (setting [3]) came out at 6.97 ± 1.39 µM. Besides, the IC50 in data set [2] (setting [4]) came to 6.97 ± 1.39 µM.

In the case of `CC(C)NC(=N)c1ccc(OCCCOc2cccc(-c3cc4ccc(C(=N)NC(C)C)cc4o3)c2)cc1.Cl.Cl` [Compound 57, 2-(3-(3-(4-(N-Isopropylcarbamimidoyl)phenoxy)propoxy)phenyl)-N-isopropylbenzofuran-6-carboxamidine dihydrochloride], the melting point is 213 to 217 °C. For the same compound, the IC50 in data set [1] (Tables VI(a), VI(c)) is 0.483 µM. For the same compound, the IC50 in the data set on Plasmodium falciparum (Tables VI(a), VI(c)) was found to be 0.202 µM. The same compound came in with an IC50 in “in vitro” of 82.3 µM. Moreover, in the data set with Trypanosoma cruzi (Tables VI(a), VI(c)), the IC50 is 69.8 µM. Also, the IC50 in data set [2] (setting [3]) was 10.6 ± 6.42 µM. Also, the IC50 in data set [2] (setting [4]) stood at 10.6 ± 6.42 µM.

With `Cl.Cl.c1cc(OCCCOc2ccc(C3=NCCN3)cc2)cc(-c2cc3ccc(C4=NCCN4)cc3o2)c1` [Compound 58, 2-(2-(3-(3-(4-(4,5-Dihydro-1H-imidazol-2-yl)phenoxy)propoxy)phenyl)benzofuran-6-yl)-4,5-dihydro-1H-imidazole dihydrochloride], the melting point fell in the range of 208 to 211 °C. In data set [1] (Tables VI(a), VI(c)), the IC50 is 1.08 µM. For the same compound, the IC50 in the data set on Plasmodium falciparum (Tables VI(a), VI(c)) was 0.0952 µM. The same compound came in with an IC50 in “in vitro” of 10.1 µM. Also, the IC50 in the data set with Trypanosoma cruzi (Tables VI(a), VI(c)) is 7.32 µM. The 50% inhibitory concentration (IC50) in data set [2] (setting [3]) turned out to be 4.73 ± 1.71 µM. Besides, the IC50 in data set [2] (setting [4]) was determined as 4.73 ± 1.71 µM.

The compound `CC(C)NC(=N)c1ccc(OCCCCOc2cccc(-c3cc4ccc(C(=N)NC(C)C)cc4o3)c2)cc1.Cl.Cl` [Compound 60, 2-(3-(4-(4-(N-Isopropylcarbamimidoyl)phenoxy)butoxy)phenyl)-N-isopropylbenzofuran-6-carboxamidine dihydrochloride] displayed a melting point of 228 to 230 °C. For the same compound, the IC50 in data set [1] (Tables VI(a), VI(c)) came out at 0.936 µM. Also, in the data set with Plasmodium falciparum (Tables VI(a), VI(c)), the IC50 came out at 0.178 µM. Moreover, the IC50 in “in vitro” is 46.5 µM. In addition, the IC50 in data set [2] (setting [3]) came out at 12.3 ± 0.09 µM. Further, the IC50 in data set [2] (setting [4]) worked out at 12.3 ± 0.09 µM.

Consider `Cl.Cl.c1cc(OCCCCOc2ccc(C3=NCCN3)cc2)cc(-c2cc3ccc(C4=NCCN4)cc3o2)c1` [Compound 61, 2-(2-(3-(4-(4-(4,5-Dihydro-1H-imidazol-2-yl)phenoxy)butoxy)phenyl)benzofuran-6-yl)-4,5-dihydro-1H-imidazole dihydrochloride], for which the melting point is 198 to 200 °C. Also, the IC50 in data set [1] (Tables VI(a), VI(c)) turned out to be 2.86 µM. Moreover, the IC50 in the data set on Plasmodium falciparum (Tables VI(a), VI(c)) was 0.0976 µM. In the data set “in vitro”, half-maximal inhibition (IC50) was put at 5.84 µM. For the same compound, the IC50 in the data set on Trypanosoma cruzi (Tables VI(a), VI(c)) was 8.92 µM. Besides, in data set [2] (setting [3]), the concentration for half-maximal inhibition (IC50) came out at 7.38 ± 2.55 µM. For the same compound, the IC50 in data set [2] (setting [4]) was found to be 7.38 ± 2.55 µM.

Regarding `CC(C)NC(=N)c1ccc(OCCCCCOc2cccc(-c3cc4ccc(C(=N)NC(C)C)cc4o3)c2)cc1.Cl.Cl` [Compound 63, 2-(3-(5-(4-(N-Isopropylcarbamimidoyl)phenoxy)pentyloxy)phenyl)-N-isopropylbenzofuran-6-carboxamidine dihydrochloride], the melting point was 253 to 255 °C. For the same compound, the IC50 in data set [1] (Tables VI(a), VI(c)) worked out at 0.911 µM. Moreover, in the data set on Plasmodium falciparum (Tables VI(a), VI(c)), the IC50 stood at 0.294 µM. Moreover, the IC50 in “in vitro” amounted to 20.1 µM. For the same compound, the IC50 in the data set on Trypanosoma cruzi (Tables VI(a), VI(c)) is 29.7 µM. Also, the IC50 in data set [2] (setting [3]) was 8.92 ± 0.71 µM. For the same compound, in data set [2] (setting [4]), the IC50 is 8.92 ± 0.71 µM.

With `Cl.Cl.N=C(N)c1ccc(OCCCCCCOc2cccc(-c3cc4ccc(C(=N)N)cc4o3)c2)cc1` [Compound 65, 2-(3-(6-(4-Carbamimidoylphenoxy)hexyloxy)phenyl)benzofuran-6-carboxamidine dihydrochloride], the melting point was in the range of 268 to 271 °C. The IC50 in data set [1] (Tables VI(a), VI(c)) is 1.22 µM. In addition, in the data set with Plasmodium falciparum (Tables VI(a), VI(c)), the IC50 amounted to 0.479 µM. Half-maximal inhibition in the data set “in vitro” (IC50) was put at 4.33 µM. The half-maximal inhibitory concentration (IC50) in data set [2] (setting [3]) stood at 23.6 ± 1.09 µM. Besides, the IC50 in data set [2] (setting [4]) worked out at 23.6 ± 1.09 µM.

For the compound `CC(C)NC(=N)c1ccc(OCCCCCCOc2cccc(-c3cc4ccc(C(=N)NC(C)C)cc4o3)c2)cc1.Cl.Cl` [Compound 66, 2-(3-(6-(4-(N-Isopropylcarbamimidoyl)phenoxy)hexyloxy)phenyl)-N-isopropylbenzofuran-6-carboxamidine dihydrochloride], the melting point was 283 to 285 °C. Also, the IC50 in data set [1] (Tables VI(a), VI(c)) turned out to be 0.42 µM. In addition, in the data set with Plasmodium falciparum (Tables VI(a), VI(c)), the IC50 amounted to 0.347 µM. This compound also registered a half-inhibitory concentration (IC50) in the data set “in vitro” of 10.1 µM. For the same compound, the half-inhibitory concentration (IC50) in data set [2] (setting [3]) amounted to 6.18 ± 0.06 µM. Moreover, in data set [2] (setting [4]), the IC50 was determined as 6.18 ± 0.06 µM.

In the case of `Cl.Cl.N=C(N)c1ccc(OCCCCCOc2ccc(-c3cc4ccc(C(=N)N)cc4o3)cc2)cc1` [Compound 74, 2-(4-(5-(4-Carbamimidoylphenoxy)pentyloxy)phenyl)benzofuran-6-carboxamidine dihydrochloride], the melting point is 285 °C (dec.). Besides, the IC50 in data set [1] (Tables VI(a), VI(c)) was 0.314 µM. For the same compound, the IC50 with Plasmodium falciparum (Tables VI(a), VI(c)) was 0.268 µM. Further, it took 8.98 µM to reach half-maximal inhibition in “in vitro” (IC50). Also, the IC50 in data set [2] (setting [3]) stood at 2.9 ± 0.14 µM.

As to `CC(C)NC(=N)c1ccc(-c2cc3cc(C(=N)NC(C)C)ccc3o2)cc1` [Compound 164, 2-(4-(N-isopropylcarbamimidoyl)phenyl)-N-isopropylbenzofuran-5-carboxamidine], the IC50 in data set [1] was 0.125 µM; in the data set with Plasmodium falciparum, 0.073 µM; in “in vitro” it was above 198 µM; with Trypanosoma cruzi, above 198 µM; in data set [2] (read-out: L. Donovani IC50) it was 1.58 ± 1.09 µM.

For `CONC(=N)c1ccc(-c2cc3cc(C(=N)NOC)ccc3o2)cc1` [Compound 179, 2-(4-(N-Methoxycarbamimidoyl)phenyl)-N-methoxybenzofuran-5-carboxamidine], the IC50 in data set [1] is 75.4 µM; with Plasmodium falciparum, 2.5 µM; in the data set “in vitro”, above 219 µM; in the data set with Trypanosoma cruzi it was above 219 µM; in data set [2] (read-out: L. Donovani IC50) it was above 100 µM.

Take `N=C(NO)c1ccc2cc(CCCCCc3cc4ccc(C(=N)NO)cc4o3)oc2c1` [Compound 184, 2-(5-(6-(N-Hydroxycarbamimidoyl)benzofuran-2-yl)pentyl)-N-hydroxybenzofuran-6-carboxamidine]: the IC50 is 2.2 µM in data set [1] (Tables VI(a), VI(c)); 17.2 µM in the data set on Plasmodium falciparum (Tables VI(a), VI(c)); 19.4 µM in the data set “in vitro”; 4.9 µM in the data set on Trypanosoma cruzi (Tables VI(a), VI(c)); 22.2 ± 0.64 µM in data set [2] (setting [3]).

Take `N=C(NO)c1ccc2oc(CCCc3cc4cc(C(=N)NO)ccc4o3)cc2c1` [Compound 185, 2-(3-(5-(N-Hydroxycarbamimidoyl)benzofuran-2-yl)propyl)-N-hydroxybenzofuran-5-carboxamidine]: the 50% inhibitory concentration (IC50) is 4.79 µM in data set [1] (Tables VI(a), VI(c)); above 2 µM in the data set with Plasmodium falciparum (Tables VI(a), VI(c)); 23.8 µM in “in vitro”; 9.4 µM in the data set on Trypanosoma cruzi (Tables VI(a), VI(c)); above 50 µM in data set [2] (setting [3]).

For the compound `N=C(NO)c1ccc2oc(CCCCc3cc4cc(C(=N)NO)ccc4o3)cc2c1` [Compound 186, 2-(4-(5-(N-Hydroxycarbamimidoyl)benzofuran-2-yl)butyl)-N-hydroxybenzofuran-5-carboxamidine], the IC50 is 4.87 µM in data set [1] (Tables VI(a), VI(c)); above 2 µM with Plasmodium falciparum (Tables VI(a), VI(c)); above 184 µM in “in vitro”; 152 µM with Trypanosoma cruzi (Tables VI(a), VI(c)); above 100 µM in data set [2] (setting [3]).

On to `CONC(=N)c1ccc2cc(CCCCCc3cc4ccc(C(=N)NOC)cc4o3)oc2c1` [Compound 187, 2-(5-(6-(N-Methoxycarbamimidoyl)benzofuran-2-yl)pentyl)-N-methoxybenzofuran-6-carboxamidine], for which the IC50 was 13.8 µM in data set [1] (Tables VI(a), VI(c)); 9.76 µM in the data set on Plasmodium falciparum (Tables VI(a), VI(c)); 34.6 µM in the data set “in vitro”; 38.4 µM in the data set with Trypanosoma cruzi (Tables VI(a), VI(c)); above 50 µM in data set [2] (setting [3]).

For `CONC(=N)c1ccc2oc(CCCc3cc4cc(C(=N)NOC)ccc4o3)cc2c1` [Compound 188, 2-(3-(5-(N-Methoxycarbamimidoyl)benzofuran-2-yl)propyl)-N-methoxybenzofuran-5-carboxamidine], the IC50 in data set [1] (Tables VI(a), VI(c)) was 8.37 µM; in the data set with Plasmodium falciparum (Tables VI(a), VI(c)), above 1.7 µM; in “in vitro”, above 157 µM; in the data set on Trypanosoma cruzi (Tables VI(a), VI(c)), above 157 µM; in data set [2] (setting [3]), above 100 µM.

With `CONC(=N)c1ccc2oc(CCCCc3cc4cc(C(=N)NOC)ccc4o3)cc2c1` [Compound 189, 2-(4-(5-(N-Methoxycarbamimidoyl)benzofuran-2-yl)butyl)-N-methoxybenzofuran-5-carboxamidine], the IC50 in data set [1] (Tables VI(a), VI(c)) is 6.87 µM; in the data set with Plasmodium falciparum (Tables VI(a), VI(c)), around 2 µM; in the data set “in vitro”, 74.3 µM; with Trypanosoma cruzi (Tables VI(a), VI(c)), 61.9 µM; in data set [2] (setting [3]), above 100 µM.

In the case of `N=C(NO)c1ccc2oc(CCCCCc3cc4cc(C(=N)NO)ccc4o3)cc2c1` [Compound 192, 2-(5-(5-(N-Hydroxycarbamimidoyl)benzofuran-2-yl)pentyl)-N-hydroxybenzofuran-5-carboxamidine], the IC50 in data set [1] (Tables VI(a), VI(c)) is 5 µM; in the data set with Plasmodium falciparum (Tables VI(a), VI(c)), above 1.9 µM; in “in vitro”, 27 µM; in the data set on Trypanosoma cruzi (Tables VI(a), VI(c)), 11.9 µM; in data set [2] (setting [3]) it was 14.3 ± 6.49 µM.
